Data set [1] addresses T1, human CXCR3A (Homo sapiens, UniProt P49682).
T1 construct: expressed in transfected cells; host or cells: CHO-K1
T1 sequence (P49682 1-368): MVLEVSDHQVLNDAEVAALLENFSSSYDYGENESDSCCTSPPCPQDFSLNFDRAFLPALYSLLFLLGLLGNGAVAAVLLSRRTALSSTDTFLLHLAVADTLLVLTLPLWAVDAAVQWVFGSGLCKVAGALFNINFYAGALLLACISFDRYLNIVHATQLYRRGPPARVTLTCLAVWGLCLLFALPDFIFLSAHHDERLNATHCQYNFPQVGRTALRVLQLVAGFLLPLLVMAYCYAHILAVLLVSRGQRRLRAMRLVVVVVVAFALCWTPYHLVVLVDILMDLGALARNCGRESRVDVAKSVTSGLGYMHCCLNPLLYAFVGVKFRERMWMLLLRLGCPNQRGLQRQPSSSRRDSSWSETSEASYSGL
The experiment in a line: FLIPR assay (CXCL10-induced calcium signal in CHO-K1 cells). Format: cell-based. As to conditions: CHO-K1 cells expressing human CXCR3A coupled to Galpha(16); CXCL10 agonist 20 nM; mean values. The method, then: A) FLIPR assay: The bioactivity of compounds is tested in a fluorometric imaging plate reader (FLIPR: Molecular Devices) using engineered CHO-K1 cells expressing the human CXCR3A (GenBank: AY242128) coupled to a G protein (Galpha(16)). Cells are plated the day prior to bioassay in F12 medium supplemented with 10% FBS and G418 and hygromycin antibiotics to maintain recombinant selection. […] Cells are washed free of excess dye and 60 microliter of wash buffer is added. Stock solutions of test compounds are made up at a concentration of 10 mM in DMSO, and serially diluted in dilution buffer to concentrations required for inhibition dose response curves. After a 10 minute incubation period at 37° C., 10 microliters of each compound dilution are transferred from a compound plate to the plate containing the recombinant cells in the FLIPR instrument according to the manufacturer's instructions. Following basal readings, 10 microliter CXCL10 agonist at a concentration of 20 nM (from Peprotech) is added, again using the FLIPR instrument. Changes in fluorescence are monitored before and after addition of the test compounds. Emission peak values above base level after CXCL10 addition are exported after base line subtraction. The program XLfit is used to fit the data to a single site dose response curve and to calculate IC50 values. The calculated IC50 values may fluctuate depending on the daily assay performance. Fluctuations of this kind are known to those skilled in the art.

In data set [2] the target is T2, hERG K channel (Homo sapiens, UniProt Q12809).
T2 construct: host or cells: CHO
The data set can be described thus: hERG Q-Patch assay. Format: cell-based. The following applies: CHO cells expressing hERG, K+ tail current 3 min after application, mean of two or three experiments. The method, then:
B) hERG Q-Patch assay: Compounds are evaluated for block of the hERG K channel using CHO cells stably expressing the hERG gene (accession number U04270, bSys, Witterswil. Switzerland) and the Patch robotic platform (Sophion, Ballerup, Denmark) in single-cell mode at room temperature. […] When the cells are ˜80% confluent (every 2-3 days), they are either split for further culture or used for electrophysiology. […] Cells are kept in suspension medium at 32-35° C. in the QPatch robot until use, at which time aliquots are transferred to the extracellular solution (in mM: NaCl 150; KCl 4; CaCl2 1.2; MgCl2 1; HEPES 10; pH 7.4 with NaOH) containing 0.3% v/v DMSO and applied to the test plates. K^+ currents are measured with the patch-voltage-clamp technique in the whole-cell configuration with the internal solution (in […]: KCl, 140; NaCl, 10; MgCl2, 1; HEPES, 10; EGTA, 5; pH=7.2 with KOH). […] K^+tail currents are produced from a holding voltage of −80 mV by a 500-ms depolarization to +20 mV followed by a 500-ms repolarization to −40 mV; tail current amplitudes are measured at the end of the repolarization to −40 mV. The pulse pattern is repeated every 10 sec during the experiment, baseline K^+ current is measured after 3 min in extracellular solution, test-solution containing compound is then applied, and K^+ current in presence of compound is measured 3 minutes after application to the cells.
On the technique in general: hERG is a cardiac potassium channel; its block is linked to QT prolongation.

Molecules are shown by their SMILES.

Usually IC50 stands for the concentration that gives 50% inhibition.

T2 sequence (Q12809 whole entry): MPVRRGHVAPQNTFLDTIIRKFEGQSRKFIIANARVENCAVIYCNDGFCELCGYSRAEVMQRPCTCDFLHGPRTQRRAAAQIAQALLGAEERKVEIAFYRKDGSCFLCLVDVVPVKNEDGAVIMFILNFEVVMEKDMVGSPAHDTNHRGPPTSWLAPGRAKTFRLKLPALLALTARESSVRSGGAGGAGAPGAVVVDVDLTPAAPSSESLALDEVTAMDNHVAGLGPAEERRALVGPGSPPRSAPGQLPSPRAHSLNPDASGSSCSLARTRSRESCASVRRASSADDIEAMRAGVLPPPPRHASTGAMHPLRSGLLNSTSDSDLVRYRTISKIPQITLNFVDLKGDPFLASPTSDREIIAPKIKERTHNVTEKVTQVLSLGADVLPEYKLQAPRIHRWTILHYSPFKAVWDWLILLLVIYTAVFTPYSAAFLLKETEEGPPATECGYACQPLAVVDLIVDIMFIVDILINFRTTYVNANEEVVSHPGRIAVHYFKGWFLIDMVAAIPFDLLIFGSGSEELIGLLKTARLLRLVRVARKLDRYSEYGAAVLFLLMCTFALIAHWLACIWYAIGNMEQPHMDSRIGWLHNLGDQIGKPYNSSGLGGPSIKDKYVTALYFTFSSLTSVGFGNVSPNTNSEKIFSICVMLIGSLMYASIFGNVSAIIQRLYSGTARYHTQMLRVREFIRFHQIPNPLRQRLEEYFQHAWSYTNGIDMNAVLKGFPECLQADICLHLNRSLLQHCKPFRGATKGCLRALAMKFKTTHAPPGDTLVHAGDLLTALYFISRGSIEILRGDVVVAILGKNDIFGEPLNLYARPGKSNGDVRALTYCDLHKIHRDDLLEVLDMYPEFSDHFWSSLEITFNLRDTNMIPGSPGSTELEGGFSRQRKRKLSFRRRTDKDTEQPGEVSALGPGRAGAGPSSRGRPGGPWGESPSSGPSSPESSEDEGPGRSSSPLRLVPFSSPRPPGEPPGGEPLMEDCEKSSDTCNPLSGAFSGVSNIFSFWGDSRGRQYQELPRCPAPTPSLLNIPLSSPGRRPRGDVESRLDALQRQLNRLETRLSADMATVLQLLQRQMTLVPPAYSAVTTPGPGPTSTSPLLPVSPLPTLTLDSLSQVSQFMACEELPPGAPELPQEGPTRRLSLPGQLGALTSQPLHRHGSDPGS

`COc1ccc(-c2nc(C(F)(F)F)sc2N2CCN(C(=O)Cn3nc(C)nc3C)[C@H](C)C2)cc1C` [Example 12, 2-(3,5-Dimethyl-[1,2,4]triazol-1-yl)-1-{(R)-4-[4-(4-methoxy-3-methyl-phenyl)-2-trifluoromethyl-thiazol-5-yl]-2-methyl-piperazin-1-yl}-ethanone]: the IC50 in data set [1] is 25 nM. In addition, the “% block” value in data set [2] (concentration 300 nM) turned out to be 6%; in data set [2] (concentration 3000 nM), 27%.

For the compound `Cc1nc(C)n(CC(=O)N2CCN(c3sc(C(F)(F)F)nc3-c3ccc4c(c3)OCO4)C[C@H]2C)n1` [Example 13, 1-[(R)-4-(4-Benzo[1,3]dioxol-5-yl-2-trifluoromethyl-thiazol-5-yl)-2-methyl-piperazin-1-yl]-2-(3,5-dimethyl-[1,2,4]triazol-1-yl)-ethanone], the 50% inhibitory concentration (IC50) in data set [1] was 76 nM. The “% block” value in data set [2] (concentration 300 nM) came out at 9%; in data set [2] (concentration 3000 nM), 39%.

For the compound `Cc1nc(C)n(CC(=O)N2CCN(c3sc(C(F)(F)F)nc3-c3ccc4c(c3)OCCO4)C[C@H]2C)n1` [Example 14, 1-{(R)-4-[4-(2,3-Dihydro-benzo[1,4]dioxin-6-yl)-2-trifluoromethyl-thiazol-5-yl]-2-methyl-piperazin-1-yl}-2-(3,5-dimethyl-[1,2,4]triazol-1-yl)-ethanone], the IC50 in data set [1] amounted to 31 nM. In addition, the “% block” value in data set [2] (concentration 300 nM) is on record as 5%; in data set [2] (concentration 3000 nM), 14%.

Regarding `CCOc1ncc(-c2nc(C(F)(F)F)sc2N2CCN(C(=O)Cn3nc(CN(C)C)nc3C)[C@H](C)C2)cn1` [Example 17, 2-(3-Dimethylaminomethyl-5-methyl-[1,2,4]triazol-1-yl)-1-{(R)-4-[4-(2-ethoxy-pyrimidin-5-yl)-2-trifluoromethyl-thiazol-5-yl]-2-methyl-piperazin-1-yl}-ethanone], the IC50 in data set [1] turned out to be 20 nM. The “% block” value is recorded as 13% in data set [2] (concentration 300 nM) and 26% in data set [2] (concentration 3000 nM).

In the case of `Cc1nc(C)n(CC(=O)N2CCN(c3sc(C(F)(F)F)nc3-c3ccc4c(c3)CCCO4)C[C@H]2C)n1` [Example 21, 1-[(R)-4-(4-Chroman-6-yl-2-trifluoromethyl-thiazol-5-yl)-2-methyl-piperazin-1-yl]-2-(3,5-dimethyl-[1,2,4]triazol-1-yl)-ethanone], in data set [1], the IC50 is 4.7 nM. Besides, the “% block” value came out at 1% in data set [2] (concentration 300 nM) and 12% in data set [2] (concentration 3000 nM).

`COCCOc1ncc(-c2nc(C(F)(F)F)sc2N2CCN(C(=O)Cn3nc(C)nc3C)[C@H](C)C2)cn1` [Example 25, 2-(3,5-Dimethyl-[1,2,4]triazol-1-yl)-1-((R)-4-{4-[2-(2-methoxy-ethoxy)-pyrimidin-5-yl]-2-trifluoromethyl-thiazol-5-yl}-2-methyl-piperazin-1-yl)-ethanone]: in data set [1], the IC50 was 6.8 nM. The “% block” value in data set [2] (concentration 300 nM) was −1%; in data set [2] (concentration 3000 nM) it was 1%.

On to `Cc1nc(C)n(CC(=O)N2CCN(c3sc(C(F)(F)F)nc3-c3cnc(OCCN(C)C)nc3)C[C@H]2C)n1` [Example 26, 1-((R)-4-{4-[2-(2-Dimethylamino-ethoxy)-pyrimidin-5-yl]-2-trifluoromethyl-thiazol-5-yl}-2-methyl-piperazin-1-yl)-2-(3,5-dimethyl-[1,2,4]triazol-1-yl)-ethanone], for which, in data set [1], the IC50 was 41 nM. Moreover, the “% block” value in data set [2] (concentration 300 nM) is recorded as −1%; in data set [2] (concentration 3000 nM) it was −8%.

Take `Cc1nc(C)n(CC(=O)N2CCN(c3sc(C(F)(F)F)nc3-c3cnc(OCC(F)(F)F)nc3)C[C@H]2C)n1` [Example 28, 2-(3,5-Dimethyl-[1,2,4]triazol-1-yl)-1-((R)-2-methyl-4-{4-[2-(2,2,2-trifluoro-ethoxy)-pyrimidin-5-yl]-2-trifluoromethyl-thiazol-5-yl}-piperazin-1-yl)-ethanone]: the IC50 in data set [1] is 2.8 nM. The “% block” value amounted to 0% in data set [2] (concentration 300 nM) and 6% in data set [2] (concentration 3000 nM).

For the compound `CCOc1ncc(-c2nc(C(F)(F)F)sc2N2CCN(C(=O)Cn3nc(C)nc3C)[C@H](C)C2)c(OCC)n1` [Example 29, 1-{(R)-4-[4-(2,4-Diethoxy-pyrimidin-5-yl)-2-trifluoromethyl-thiazol-5-yl]-2-methyl-piperazin-1-yl}-2-(3,5-dimethyl-[1,2,4]triazol-1-yl)-ethanone], in data set [1], the IC50 came to 4.5 nM. Besides, the entries for the “% block” value in data set [2] (concentration 300 nM) and in data set [2] (concentration 3000 nM) were −2% and 0%, respectively.

Take `Cc1nc(C)n(CC(=O)N2CCN(c3sc(C(F)(F)F)nc3-c3cnc(OC4COC4)nc3)C[C@H]2C)n1` [Example 30, 2-(3,5-Dimethyl-[1,2,4]triazol-1-yl)-1-((R)-2-methyl-4-{4-[2-(oxetan-3-yloxy)-pyrimidin-5-yl]-2-trifluoromethyl-thiazol-5-yl}-piperazin-1-yl)-ethanone]: the IC50 in data set [1] amounted to 22 nM. Also, the “% block” value in data set [2] (concentration 300 nM) is listed as 1%; in data set [2] (concentration 3000 nM) it was 6%.

Turning to `CCOc1ccc(-c2nc(C(F)(F)F)sc2N2CCN(C(=O)Cn3nc(C)nc3C)[C@H](C)C2)cc1` [Example 31, 2-(3,5-Dimethyl-[1,2,4]triazol-1-yl)-1-{(R)-4-[4-(4-ethoxy-phenyl)-2-trifluoromethyl-thiazol-5-yl]-2-methyl-piperazin-1-yl}-ethanone], in data set [1], the IC50 amounted to 10 nM. Further, the “% block” value in data set [2] (concentration 300 nM) worked out at 6%; in data set [2] (concentration 3000 nM) it was 14%.

Take `CCOc1ncc(-c2nc(C(F)(F)F)sc2N2CCN(C(=O)Cn3nc(C)nc3C)[C@@H](C)C2)cn1` [Example 34, 2-(3,5-Dimethyl-[1,2,4]triazol-1-yl)-1-{(S)-4-[4-(2-ethoxy-pyrimidin-5-yl)-2-trifluoromethyl-thiazol-5-yl]-2-methyl-piperazin-1-yl}-ethanone]: the IC50 in data set [1] came to 5.7 nM. Moreover, the “% block” value in data set [2] (concentration 300 nM) was 3%; in data set [2] (concentration 3000 nM), 4%.

On to `CCOc1ncc(-c2nc(C(F)(F)F)sc2N2CCN(C(=O)Cn3nc(C)nc3C)CC2)cn1` [Example 35, 2-(3,5-Dimethyl-[1,2,4]triazol-1-yl)-1-{4-[4-(2-ethoxy-pyrimidin-5-yl)-2-trifluoromethyl-thiazol-5-yl]-piperazin-1-yl}-ethanone], for which the IC50 in data set [1] stood at 4.6 nM. In addition, the results for the “% block” value in data set [2] (concentration 300 nM) and in data set [2] (concentration 3000 nM) were 2% and 4%, respectively.

`Cc1nc(C)n(CC(=O)N2CCN(c3sc(C(F)(F)F)nc3-c3cnc(N4CCN(C)CC4)nc3)C[C@H]2C)n1` [Example 37, 2-(3,5-Dimethyl-[1,2,4]triazol-1-yl)-1-((R)-2-methyl-4-{4-[2-(4-methyl-piperazin-1-yl)-pyrimidin-5-yl]-2-trifluoromethyl-thiazol-5-yl}-piperazin-1-yl)-ethanone]: in data set [1], the concentration for half-maximal inhibition (IC50) came to 4.8 nM. In addition, the “% block” value in data set [2] (concentration 300 nM) was found to be 2%; in data set [2] (concentration 3000 nM), 4%.

With `Cc1nc(C)n(CC(=O)N2CCN(c3sc(C(F)(F)F)nc3-c3cnc4c(c3)CCCO4)C[C@H]2C)n1` [Example 39, 1-{(R)-4-[4-(3,4-Dihydro-2H-pyrano[2,3-b]pyridin-6-yl)-2-trifluoromethyl-thiazol-5-yl]-2-methyl-piperazin-1-yl}-2-(3,5-dimethyl-[1,2,4]triazol-1-yl)-ethanone], in data set [1], the IC50 was 31 nM. The figures for the “% block” value in data set [2] (concentration 300 nM) and in data set [2] (concentration 3000 nM) were 3% and 15%, respectively.

For `Cc1nc(C)n(CC(=O)N2CCN(c3sc(C(F)(F)F)nc3-c3ccc4c(c3)CCO4)C[C@H]2C)n1` [Example 40, 1-{(R)-4-[4-(2,3-Dihydro-benzofuran-5-yl)-2-trifluoromethyl-thiazol-5-yl]-2-methyl-piperazin-1-yl}-2-(3,5-dimethyl-[1,2,4]triazol-1-yl)-ethanone], the IC50 in data set [1] stood at 22 nM. For the same compound, the “% block” value was 1% in data set [2] (concentration 300 nM) and 25% in data set [2] (concentration 3000 nM).

(Values after patent US10259807B2, “1-(piperazin-1-yl)-2-([1,2,4]triazol-1-yl)-ethanone derivatives” (Idorsia Pharmaceuticals Ltd., priority 2013, dated 2019).)
